From publication PMC6797808, “Fucosylated inhibitors of recently identified bangle lectin from Photorhabdus asymbiotica” (Scientific Reports, 2019)
Values after ≈ are worked out from the molar mass of the structure shown. Like-named read-outs stand apart in the source and are kept apart here.

Experiments:
[1] = molecular target: T1, PHL (Photorhabdus asymbiotica, UniProt C7BLE4); assay: Hemagglutination inhibition assay with PHL (papain-treated human RBCs O); type: cell-based; settings: for MIC (minimal inhibitory concentration, hemagglutination by PHL): RBC O, two independent measurements; for PotencyL-Fuc: MIC L-fucose / MIC ligand; for β L-Fuc (affinity improvement factor): MICbasic unit/(valency × MICligand), basic unit L-Fuc
Description: The set of potential ligands 1–10 with different levels of fucosylation was tested, and their inhibition potency on hemagglutination by PHL was assessed (Table 1, Fig. 2). […] To assess the contribution of valency to the affinity increase, an affinity improvement factor β was calculated as the relationship MICbasic unit/(valency × MICligand).
Human red blood cells (RBCs) O were processed according to previously published work[16]. In brief, RBCs O treated with sodium citrate were washed four times by PBS buffer (137 mM NaCl, 2.7 mM KCl, 8 mM Na2HPO4, 1.47 mM KH2PO4, pH 7.4), diluted to 50% by PBS with 0.005% (w/w) sodium azide and treated by 0.1% papain for the duration of 30 minutes.
Hemagglutination inhibition assay was performed for specificity and semi-quantitative affinity of the PHL interaction with the compounds. All carbohydrate inhibitors in 50 mM starting concentration were serially diluted in the PBS buffer and used for a determination of the lowest inhibiting concentration. As a blank, the PBS buffer supplemented with the appropriate amount of DMSO was used in order to exclude potential interference with the interaction. The individual samples were mixed with the lectin in concentration 2 mg/ml in a 5 μl:5 μl ratio. Thereafter, 10 μl of 10% RBCs O in PBS buffer was added, thoroughly mixed and incubated for 10 minutes at room temperature. Following incubation, the mixture was again mixed and the reaction was observed on microscope slides using Levenhuk 2L NG microscope with Levenhuk D2L digital camera (Levenhuk, USA). Imagines were obtained via software ToupView for Windows (Levenhuk). The positive (PHL without inhibitor) and negative control (reaction without PHL) were prepared and processed in the same way using the appropriate volume of PBS buffer instead of the not included components. The lowest concentration of inhibitor able to inhibit agglutination was determined and compared with the standard (L-fucose). Minimal inhibitory concentrations (MIC) of synthesised inhibitors were determined from two independent measurements.

[2] = molecular target: T1, PHL; assay: SPR competitive inhibition of PHL binding to α-L-fucoside sensor chip; settings: for IC50: 25 °C, three independent measurements; for β L-Fuc (affinity improvement factor): IC50,basic unit/(valency × IC50,ligand), basic unit L-Fuc; for PotencyL-Fuc: IC50 L-fucose / IC50 ligand
Description: To analyse the competitive inhibition of PHL binding to a multivalent surface, the surface plasmon resonance (SPR) technique was employed. A sensor chip presenting α-L-fucopyranoside residues was treated with a constant concentration of PHL, while an increasing concentration of the ligands was used to determine IC50 (Table 2, Fig. 3). […] To assess the contribution of valency to the affinity increase, an affinity improvement factor β was calculated as the relationship IC50,basic unit/(valency × IC50,ligand)[30].
Surface plasmon resonance (SPR) experiments were performed on a BIAcore T200 instrument (GE Healthcare, UK) at 25 °C, using buffer A supplemented with 0.05% Tween 20 as a running buffer. α-L-fucoside was immobilized onto CM5 sensor chip (GE Healthcare, UK) covered with a carboxymethylated dextran matrix. The sensor chip surface was activated with N-ethyl-N-(3-dimethylaminopropyl)carbodiimide/N-hydroxysuccinimide solution and then coated with streptavidin using the manufacturer’s standard protocol using HBS buffer (10 mM HEPES, 150 mM NaCl, 0.05% Tween 20, pH 7. 5). Unreacted groups were blocked with 1 M ethanolamine-HCl, pH 8.5. Biotinylated carbohydrate (biotinilated monomeric probes, Lectinity, Russia) was injected onto particular measuring channel and pure biotin on blank channel at a flow rate of 5 μl/min.
SPR inhibition measurements were carried out on measuring channel with L-fucoside at a flow rate of 5 µl/min. PHL was diluted to a concentration of 20 μg/ml by the buffer A supplemented with 0.05% Tween 20, mixed 1:1 (v/v) with various concentrations of inhibitors (500–5 μM) in the same buffer and injected onto the sensor chip. The response of lectin bound to the sugar surface at equilibrium was plotted against the concentration of inhibitor in order to determine IC50 (concentration of inhibitor resulting in 50% inhibition of binding). As IC50 is not a constant and depends on the experimental set-up, a parameter called potency was used for characterization. The potency of a tested inhibitor is the ratio of IC50 of a chosen standard inhibitor (in this case L-fucose) and the inhibitor in question. Pure PHL lectin was used as a control (0% inhibition) and channel with pure biotin served as a blank. IC50 was determined from triplicates.

[3] = test system: P. asymbiotica subsp. australis cells; assay: Cell aggregation (cross-linking) assay; type: cell-based, Photorhabdus asymbiotica subsp. australis; settings: three independent measurements
Description: Because of the aggregation of PHL by calixarenes and dendrimers during SPR and ITC experiments, we decided to compare tetravalent compounds at a higher level. We performed a series of in vitro aggregation assays to reveal their aggregation properties towards P. asymbiotica subsp. australis (Table 4, Fig. 5). Prior to each assay, we confirmed the absence of aggregates in two negative controls – bacterial cells in PBS buffer and in the presence of azide 1 as a monomer. With all chosen compounds, we observed bacterial aggregates of a variable size that confirmed that they are capable of interacting with a cell surface. This effect may be caused by interaction of the multivalent inhibitors with PHL or other receptors. The concentration of the first appearance of aggregates varied according to the nature of the ligand used. […] An unexpected observation was that calixarene 7 had the lowest aggregation potential. In contrast to other techniques (hemagglutination, SPR and ITC), where calixarenes 6 and 7 provided similar results, during cross-linking experiments calixarene 7 was four times worse than calixarene 6. At the same time, both tetrameric calixarenes 6 and 7 are in a 1,3-alternate conformation with the two-faced presentation of the fucopyranosyl epitopes on opposite regions probably occupying a similar spatial orientation. The only difference is the tert-Bu group on the upper rim in calixarene 6, which might contribute to nonpolar interactions with whole P. asymbiotica cells.
P. asymbiotica subsp. australis was inoculated from stock cells stored at −80 °C into a standard LB media and were grown in 30 °C under an orbital shaking overnight. Bacterial growth was tracked by measuring the optical density of the broth at 600 nm (OD600) using a spectrophotometer (Biochrom Ltd., BioPhotometer WGA CO 8000 Biowave). Cells were harvested when reaching an OD600 = 0.5. The culture was centrifuged at 4,300 g and room temperature for 2 minutes (Minispin, Eppendorf, Germany) and cells were then washed three times with PBS buffer. Cells were diluted in PBS to OD600 of 2.0 and kept in a fridge until performing the aggregation assay.
P. asymbiotica subsp. australis cells and fucosylated compounds in a concentration ranging from 50 mM to 3.125 mM were gently mixed in a 9:1 (v/v) ratio. The reaction mixtures were left at room temperature for 10 minutes. 5 µl of reaction mixture was then transferred onto a microscope slide and observed under a fluorescence microscope (OLYMPUS IX81 Microscope IX81F-3 with IX2-UCB-2 Controller and X-Cite 120PC Q; Olympus and Excelitas Technologies, Japan, resp. USA). As a negative control, bacterial cells with/without azide 1 as a monomer were used. Three independent measurements were performed.

[4] = molecular target: T1, PHL; assay: Isothermal titration calorimetry of PHL with ligands; type: binding
Description: The binding of PHL to different α-L-fucoside compounds was further characterized by isothermal titration calorimetry (ITC), enabling determination of the complete thermodynamic profile of the molecular interactions (Table 3, Fig. 4). […] Because of this, it was not possible to evaluate the data, despite the obvious interaction. The dendrimers also cross-linked/aggregated the protein as with calixarenes, however the curves provided clear outcomes with an affinity in the low micromolar range. The dissociation constants (KD) of all dendrimers correlate with their valency – the higher number of fucose, the more decreased KD. […] The stoichiometry value n corresponds to the number of terminal fucoses per ligand molecule. The n value decreases from 4 to 1 as the number of fucose units increases from 1 to 12 (Table 3).
PHL protein in buffer A was equilibrated at room temperature at least for 30 min before ITC measurement. All ITC experiments were performed using ITC200 calorimeter (Malvern Panalytical, UK) at 25 °C. Carbohydrate ligands dissolved in buffer A were used at different concentrations. Protein in the calorimeter cell (50 μM) was titrated by consecutive additions (2 μl) of the ligand (1.5–5 mM) in the syringe while stirring at 1000 rpm. Integrated heat effects were analysed by nonlinear regression using a single-site binding model and global fitting in Origin 7 software (Microcal Instruments)[37]. The thermodynamic parameters of synthesised inhibitors were determined from two independent measurements.

[5] = molecular target: T1, PHL; design: method as in PMID 28806750; settings: SPR competition assay, earlier work; cited from earlier work

T1 sequence (C7BLE4 entry or part of it): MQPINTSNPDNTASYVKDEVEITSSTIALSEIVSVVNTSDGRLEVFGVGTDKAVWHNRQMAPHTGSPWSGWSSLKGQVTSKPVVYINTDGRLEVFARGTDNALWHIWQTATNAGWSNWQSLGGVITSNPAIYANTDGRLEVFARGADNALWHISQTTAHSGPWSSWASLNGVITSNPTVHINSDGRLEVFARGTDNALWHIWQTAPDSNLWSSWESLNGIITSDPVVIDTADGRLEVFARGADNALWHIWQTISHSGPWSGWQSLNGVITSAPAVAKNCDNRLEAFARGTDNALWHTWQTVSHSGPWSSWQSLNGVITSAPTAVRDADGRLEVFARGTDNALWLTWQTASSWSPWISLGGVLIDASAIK

Compound: C[C@@H]1O[C@@H](CCn2cc(COc3c4cccc3Cc3cccc(c3OCc3cn(CC[C@@H]5O[C@@H](C)[C@@H](O)[C@@H](O)[C@@H]5O)nn3)Cc3cccc(c3OCc3cn(CC[C@@H]5O[C@@H](C)[C@@H](O)[C@@H](O)[C@@H]5O)nn3)Cc3cccc(c3OCc3cn(CC[C@@H]5O[C@@H](C)[C@@H](O)[C@@H](O)[C@@H]5O)nn3)C4)nn2)[C@@H](O)[C@H](O)[C@@H]1O [Calixarene 7]
- MIC (minimal inhibitory concentration, hemagglutination by PHL) [1]: 100 µM (≈ 145 µg/mL)
- PotencyL-Fuc ([1]; hemagglutination): 31.3
- β L-Fuc (affinity improvement factor) ([1]; hemagglutination): 7.8
- β Azide1 (affinity improvement factor) ([1]; hemagglutination, basic unit azide 1): 0.5
- PotencyAzide1 ([1]; hemagglutination, relative to azide 1): 2
- IC50 [2]: 0.178 ± 0.02 µM
- β L-Fuc (affinity improvement factor) [2]: 508
- PotencyL-Fuc [2]: 2,029
- β Azide1 (affinity improvement factor) ([2]; basic unit azide 1): approximately 15
- PotencyAzide1 ([2]; relative to azide 1): 61
- The lowest concentration able to aggregate P. asymbiotica cells [3]: 5 mM

Compound: CO[C@@H]1O[C@@H](C)[C@@H](O)[C@@H](O)[C@@H]1O [α-Me-Fuc, methyl α-L-fucopyranoside, reference compound]
- MIC (minimal inhibitory concentration, hemagglutination by PHL) [1]: 400 µM (≈ 71.3 µg/mL)
- PotencyL-Fuc ([1]; hemagglutination): 7.8
- β L-Fuc (affinity improvement factor) ([1]; hemagglutination): 7.8
- IC50 [2]: 38.5 ± 1.2 µM
- β L-Fuc (affinity improvement factor) [2]: 9
- PotencyL-Fuc [2]: 9
- Kd ([4]; ITC at 25 °C): 267 ± 11 µM
- −TΔS ([4]; ITC at 25 °C): 9.23 ± 1.03 kcal/mol
- −ΔG ([4]; ITC at 25 °C): 4.88 ± 0.22 kcal/mol
- −ΔH ([4]; ITC at 25 °C): 14.1 ± 1 kcal/mol
- n (stoichiometry) ([4]; ITC at 25 °C, two independent measurements): 2.9 ± 0.2
- Potency L-Fuc ([4]; ITC, KD L-fucose / KD ligand): 5
- β L-Fuc (affinity improvement factor) ([4]; ITC, KD,basic unit/(valency × KD,ligand), basic unit L-Fuc): 5
- IC50 [5]: 40 µM
- fold stronger ligand than free L-fucose [5]: ~10 fold
